Laboratory results taken from patent US8895739B2, “Acylation of hindered amines and functionalized bis-peptides obtained thereby” (Temple University of the Commonwealth System of Higher …, priority 2008, dated 2014).

Key:
[1] = tested on: HepG2 cells; assay type: cell-based, human
Procedure: (§1) The effect of the sub-micromolar HDM2 binding bis-peptide 1 in cell-culture was thereafter evaluated. The cell-penetrating capability of two of the functionalized bis-peptides was first examined. […] Bis-peptide 1 was then incubated with both Huh7 cells and HepG2 (human liver hepatoblastoma cells) and imaged.

[2] = tested on: Huh7 cells; test: cell penetration by fluorescence microscopy, Huh7; assay type: cell-based, human
Procedure: as §1

[3] = tested on: p53; conditions: stated as known behaviour of HDM2 ligands; cited from earlier work

Compound | cellular uptake and distribution [1] | cellular uptake and distribution [2] | effect on p53 levels [3] | cellular uptake ([2]; Huh7, 2 μM, 24 hours, fluorescence and confocal microscopy)
CC(C)CN1C(=O)[C@@H]2C[C@@]3(CN2C(=O)[C@@]12C[C@H]1C(=O)N(Cc4ccc(Cl)c(Cl)c4)[C@]4(C[C@@H]5C(=O)N[C@@H](CCc6ccccc6)C(=O)N5C4)C(=O)N1C2)NC(=O)[C@@H](CCCCNC(=S)Nc1ccc2c(c1)C(=O)OC21c2ccc(O)cc2Oc2cc(O)ccc21)NC3=O [Entry 1] | distribution of entry 1 throughout the cytoplasm and nucleus | distribution of entry 1 throughout the cytoplasm and nucleus | – | –
COc1ccc(C2=N[C@@H](c3ccc(Cl)cc3)[C@@H](c3ccc(Cl)cc3)N2C(=O)N2CCNC(=O)C2)c(OC(C)C)c1 [nutlin-3a] | – | – | increase in p53 levels | –
CC(C)CN1C(=O)[C@@H]2C[C@@]3(CN2C(=O)[C@@]12C[C@H]1C(=O)N(Cc4ccc5ccccc5c4)[C@]4(C[C@H]5C(=O)N[C@@H](Cc6ccccc6)C(=O)N5C4)C(=O)N1C2)NC(=O)[C@H](CCCCNC(=S)Nc1ccc2c(c1)C(=O)OC21c2ccc(O)cc2Oc2cc(O)ccc21)NC3=O [Entry 3] | – | – | – | Significant uptake
O=C1OC2(c3ccc(O)cc3Oc3cc(O)ccc32)c2ccccc21 [fluorescein, reference compound] | no visible uptake of fluorescence | no visible uptake of fluorescence | – | –
